“Also recorded” adds a separate entry of the source.

Assay [1] deals with Calu3 human airway epithelial cells. In words: IL-13 induced MUC5AC expression in Calu3 cells. Type of assay: cell-based. To be noted: IL-13 stimulation. As to the method:
(§1) Mouse models were performed according to the previous example. For investigating mucus, IL-8 release, and leukocytes, tissues were fixed using 4% paraformaldehyde (PFA), 0.2% picric acid and 3.4% sucrose in PBS and washed in methanol before embedding in paraffin. Mucus was analyzed using standard Periodic acid-Schiff (PAS) or alcian blue staining. MUC5AC was stained using anti-MUC5AC mouse antibody (1:200, Abcam, ab3649) and a secondary antibody conjugated with Alexa488 (Life Technologies, A-21206). Nuclei were stained with Hoe33342 (0.1 μg/ml PBS, Aplichem, Darmstadt, Germany). Quantikine ELISA kits (R&D systems) were used to measure secretion of the cytokine IL-8 by Calu3 cells.
Calu3 airway epithelial cells were exposed to LPS for 48 hrs and the release of the neutrophil attractor interleukin 8 (IL-8) was measured. […] Upon stimulation with the Th2 cytokine IL-13, Calu3 cells produced MUC5AC. […] Taken together, airway epithelial knockout of TMEM16A caused a defect in mucus secretion, while mucus production was retained (FIG. 16C).

For assay [2], the system named is freshly isolated crypt cells. In words: ATP-induced Ca2+ rise in freshly isolated crypt cells (Fura-2). Type of assay: cell-based, mouse. As to conditions: low concentrations of niclosamide. As to the method: All methods were carried out as specified in the previous examples. For the measurements of Ca^2+, crypts were isolated from inverted proximal mouse colons using Ca^2+-free Ringer solution with 1 mM DTT and 1 μM indomethacin for 20 min at 37° C. Crypts were loaded with 10 μM Fura2-AM (Biotum, USA) and 1 mg/ml BSA (Sigma-Aldrich) in ringer solution for 1 h at RT. Intracellular Ca^2+ was measured by loading crypts with […] Fura-2/AM and 0.02% Pluronic F-127 (Life Technologies, Germany) in ringer solution for 1 h at room temperature. Fluorescence was detected in cells perfused with Ringer's solution at 37° C. using an inverted microscope (Axiovert S100, Zeiss, Germany) and a high-speed polychromator system (VisiChrome, Germany). Fura-2 was excited at 340/380 nm, and emission was recorded between 470 and 550 nm using a CoolSnap camera (CoolSnap HQ, Visitron).
It was examined whether niclosamide inhibits intestinal mucus secretion. To this end, niclosamide was added to the perfusate. […] The present inventors detected reduced Ca^2+ increase upon ATP-stimulation of freshly isolated crypt cells from Vil1-Cre TMEM16F^flox/flox mice. […] Increase in FM4-64 fluorescence in the plasma membrane is a marker for membrane exocytosis. The present inventors detected that ATP-stimulation (but not cholinergic stimulation) of HEK293 cells expressing TMEM16F induced FM4-64 fluorescence, i.e. exocytosis.

Assay [3] relates to airways of OVA-sensitized mice. In words: OVA-induced allergic airway inflammation in mice (alcian blue mucus staining, airway cross section, CD45 infiltration). Type of assay: in vivo, mouse. As to the method: Intestinal sections were collected for histological analyses. Mouse airways were fixed by transcardial fixation and were embedded in paraffin or were used as cryosections. For paraffin sections, tissues were fixed in 4% paraformaldehyde (PFA), 0.2% picric acid and 3.4% sucrose in PBS, and were washed in methanol before embedding in paraffin. Sections were stained according to standard Periodic acid-Schiff (PAS) or Alcian Blue methods and assessed by light microscopy.
as §1
All methods were performed as described in the previous examples. Mice were treated with ovalbumin (OVA) to induce an allergic reaction which leads to airway inflammation. […] After allergization with OVA and development of airway inflammation, excessive mucus production and inflammatory infiltration with immune cells is observed. Activation of cholinergic receptors using the muscarinic agonist carbachol (CCH) results in constriction of the airways and secretion of mucus (FIG. 5A-C). 3-day treatment using niclosamide reduced the CCH-induced constriction of the airways (FIG. 1). Furthermore, mucus secretion and inflammatory infiltrates were reduced.
OVA-induced allergic airway inflammation in mice caused pronounced airway goblet cell metaplasia. […] NFA is a well know inhibitor of Ca^2+ activated Cl^− channels and inhibits TMEM16A. The two main TMEM16 paralogs expressed in airway epithelial and smooth muscle cells, TMEM16A and TMEM16F, were expressed in HEK293 cells and the whole cell currents upon activation by the Ca^2+ ionophore ionomycin (Iono) were measured. […] Novel therapeutic strategies for the treatment of inflammatory airway diseases such as CF may therefore consider the use of inhibitors of TMEM16.
The present inventors disclose that airway epithelial knockout of TMEM16A causes a defect in basal, i.e. ATP-mediated mucus secretion. […] Mucus synthesis under inflammatory (OVA) conditions and mucus release upon cholinergic stimulation, however, were not compromised (FIG. 16C). […] Because basal mucus production still occurs in the absence of TMEM16A, other TMEM16 paralogs may also be in charge of mucus synthesis.

Regarding `O=C(Nc1ccc([N+](=O)[O-])cc1Cl)c1cc(Cl)ccc1O` [niclosamide, 5-chloro-N-(2-chloro-4-nitrophenyl)-2-hydroxybenzamide], the Muc5AC-expression result in assay [1] is “largely reduced”. The “ATP-induced Ca2+ rise” value in assay [2] is given as “potently inhibited”. For the same compound, in assay [3] (OVA-allergized mice, 3-day treatment), the inflammatory infiltrates entry is “reduced”. Also, the mucus secretion entry in assay [3] (OVA-allergized mice, 3-day treatment, CCH) is “reduced”. In assay [3] (OVA-allergized mice, 3-day treatment, carbachol (CCH)), the “CCH-induced constriction of the airways” value is reported as “reduces”. Also, the CCH-induced airway contraction result in assay [3] (OVA-sensitized TMEM16A+/+ and TMEM16A−/− mice, intratracheal for three days before CCH) is on record as “strongly attenuated”. Besides, the “mucus synthesis / production” value in assay [3] (OVA-sensitized wt (TMEM16A+/+) and TMEM16A−/− mice, intratracheal for three days before CCH) is recorded as “strongly reduced; also recorded: strongly attenuated”. For the same compound, the OVA-induced mucus production entry in assay [3] (wt mice, tracheal instillation, niflumic acid 20 μM or niclosamide 5 μM) is “strongly reduced; also recorded: inhibited mucus production”.

Source of the values: patent US20210283110A1, “COMPOUND FOR USE IN THE TREATMENT OF A DISEASE CHARACTERIZED BY DYSREGULATED MUCUS PRODUCTION AND/OR SECRETION” (UNIVERSITÄT REGENSBURG, priority 2018, published 2021).
